What was measured:
Hepatotoxicity [1] = tested on: Hepatotoxicity;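 as to HepSE bilirubinemia: bilirubinemia hepatic side effect score drawn from the DILIps training data, a prediction system for drug-induced liver injury; call rule not given here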;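 as to HepSE cholecystitis: Cholecystitis-related hepatic side effect score drawn from the DILIps (drug-induced liver injury prediction) training data set; call rule not given here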;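 as to HepSE cholelithiasis: hepatic side effect score for cholelithiasis, drawn from the DILIps training data for predicting drug-induced liver injury; call rule not given here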;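 as to HepSE cirrhosis: cirrhosis hepatic side effect score taken from the DILIps (drug-induced liver injury prediction) training set; call rule not given here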;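 as to HepSE elevated liver function tests: hepatic side effect score for raised liver function tests, as recorded in the DILIps training set used for predicting drug-induced liver injury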; as to HepSE hepatic failure: call rule not given here;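 as to HepSE hepatomegaly: hepatic side effect score for hepatomegaly, taken from the training set of the DILIps drug-induced liver injury prediction system; call rule not given here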
Hepatotoxicity [2] = tested on: Hepatotoxicity; remark: listed apart in the source;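 as to HepSE bilirubinemia: bilirubinemia hepatic side effect score drawn from the DILIps training data, a prediction system for drug-induced liver injury; call rule not given here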;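 as to HepSE cholecystitis: Cholecystitis-related hepatic side effect score drawn from the DILIps (drug-induced liver injury prediction) training data set; call rule not given here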;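 as to HepSE cholelithiasis: hepatic side effect score for cholelithiasis, drawn from the DILIps training data for predicting drug-induced liver injury; call rule not given here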;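 as to HepSE cirrhosis: cirrhosis hepatic side effect score taken from the DILIps (drug-induced liver injury prediction) training set; call rule not given here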;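 as to HepSE elevated liver function tests: hepatic side effect score for raised liver function tests, as recorded in the DILIps training set used for predicting drug-induced liver injury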; as to HepSE hepatic failure: call rule not given here
Hepatotoxicity [3] = tested on: Hepatotoxicity; remark: listed apart in the source;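 as to HepSE bilirubinemia: bilirubinemia hepatic side effect score drawn from the DILIps training data, a prediction system for drug-induced liver injury; call rule not given here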;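 as to HepSE cholecystitis: Cholecystitis-related hepatic side effect score drawn from the DILIps (drug-induced liver injury prediction) training data set; call rule not given here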;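 as to HepSE cholelithiasis: hepatic side effect score for cholelithiasis, drawn from the DILIps training data for predicting drug-induced liver injury; call rule not given here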;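 as to HepSE cirrhosis: cirrhosis hepatic side effect score taken from the DILIps (drug-induced liver injury prediction) training set; call rule not given here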;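 as to HepSE elevated liver function tests: hepatic side effect score for raised liver function tests, as recorded in the DILIps training set used for predicting drug-induced liver injury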; as to HepSE hepatic failure: call rule not given here
Hepatotoxicity [4] = tested on: Hepatotoxicity; remark: listed apart in the source;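 as to HepSE bilirubinemia: bilirubinemia hepatic side effect score drawn from the DILIps training data, a prediction system for drug-induced liver injury; call rule not given here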;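 as to HepSE cholecystitis: Cholecystitis-related hepatic side effect score drawn from the DILIps (drug-induced liver injury prediction) training data set; call rule not given here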;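 as to HepSE cholelithiasis: hepatic side effect score for cholelithiasis, drawn from the DILIps training data for predicting drug-induced liver injury; call rule not given here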;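 as to HepSE cirrhosis: cirrhosis hepatic side effect score taken from the DILIps (drug-induced liver injury prediction) training set; call rule not given here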;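 as to HepSE elevated liver function tests: hepatic side effect score for raised liver function tests, as recorded in the DILIps training set used for predicting drug-induced liver injury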; as to HepSE hepatic failure: call rule not given here
Hepatotoxicity [5] = tested on: Hepatotoxicity; remark: listed apart in the source; as to HepSE hepatic failure: call rule not given here
Hepatotoxicity [6] = tested on: Hepatotoxicity; remark: listed apart in the source; as to HepSE hepatic failure: call rule not given here
Hepatotoxicity [7] = tested on: Hepatotoxicity; remark: listed apart in the source
Hepatotoxicity [8] = tested on: Hepatotoxicity; remark: listed apart in the source
Hepatotoxicity [9] = tested on: Hepatotoxicity; remark: listed apart in the source
Hepatotoxicity [10] = tested on: Hepatotoxicity; remark: listed apart in the source
Hepatotoxicity [11] = tested on: Hepatotoxicity; remark: listed apart in the source
Hepatotoxicity [12] = tested on: Hepatotoxicity; remark: listed apart in the source
Hepatotoxicity [13] = tested on: Hepatotoxicity; remark: listed apart in the source
Hepatotoxicity [14] = tested on: Hepatotoxicity; remark: listed apart in the source

Nc1nc(N)c2nc(-c3ccccc3)c(N)nc2n1
HepSE_bilirubinemia (Hepatotoxicity [1]): 0 | HepSE_cholecystitis (Hepatotoxicity [2]): 0 | HepSE_cholelithiasis (Hepatotoxicity [3]): 0 | HepSE_cirrhosis (Hepatotoxicity [4]): 0 | HepSE_elevated liver function tests (Hepatotoxicity [5]): 0 | HepSE_hepatic failure (Hepatotoxicity [6]): 0 | HepSE_hepatic necrosis (Hepatotoxicity [7]): 0 | HepSE_hepatitis (Hepatotoxicity [8]): 0 | HepSE_hepatomegaly (Hepatotoxicity [9]): 0 | HepSE_jaundice (Hepatotoxicity [10]): 1 | HepSE_liver disease (Hepatotoxicity [11]): 0 | HepSE_liver fatty (Hepatotoxicity [12]): 0 | HepSE_liver function tests abnormal (Hepatotoxicity [13]): 0 | HepSE_Combined Scores (Hepatotoxicity [14]): 1

C[N+](C)(C)CCOC(N)=O.[Cl-] [CARBACHOL]
HepSE_bilirubinemia (Hepatotoxicity [1]): 0 | HepSE_cholecystitis (Hepatotoxicity [2]): 0 | HepSE_cholelithiasis (Hepatotoxicity [3]): 0 | HepSE_cirrhosis (Hepatotoxicity [4]): 0 | HepSE_elevated liver function tests (Hepatotoxicity [5]): 0 | HepSE_hepatic failure (Hepatotoxicity [6]): 0 | HepSE_hepatic necrosis (Hepatotoxicity [7]): 0 | HepSE_hepatitis (Hepatotoxicity [8]): 0 | HepSE_hepatomegaly (Hepatotoxicity [9]): 0 | HepSE_jaundice (Hepatotoxicity [10]): 0 | HepSE_liver disease (Hepatotoxicity [11]): 0 | HepSE_liver fatty (Hepatotoxicity [12]): 0 | HepSE_liver function tests abnormal (Hepatotoxicity [13]): 0 | HepSE_Combined Scores (Hepatotoxicity [14]): 0

CN(C)[C@@H]1C(O)=C(C(N)=O)C(=O)[C@@]2(O)C(O)=C3C(=O)c4c(O)ccc(Cl)c4[C@@H](O)[C@H]3C[C@@H]12 [DEMECLOCYCLINE]
HepSE_bilirubinemia (Hepatotoxicity [1]): 0 | HepSE_cholecystitis (Hepatotoxicity [2]): 0 | HepSE_cholelithiasis (Hepatotoxicity [3]): 0 | HepSE_cirrhosis (Hepatotoxicity [4]): 0 | HepSE_elevated liver function tests (Hepatotoxicity [5]): 0 | HepSE_hepatic failure (Hepatotoxicity [6]): 1 | HepSE_hepatic necrosis (Hepatotoxicity [7]): 0 | HepSE_hepatitis (Hepatotoxicity [8]): 1 | HepSE_hepatomegaly (Hepatotoxicity [9]): 0 | HepSE_jaundice (Hepatotoxicity [10]): 0 | HepSE_liver disease (Hepatotoxicity [11]): 0 | HepSE_liver fatty (Hepatotoxicity [12]): 0 | HepSE_liver function tests abnormal (Hepatotoxicity [13]): 0 | HepSE_Combined Scores (Hepatotoxicity [14]): 2

CCCCC[C@](C)(O)/C=C/[C@@H]1[C@@H](C/C=C/CCCC(=O)O)[C@@H](O)C[C@H]1O
HepSE_bilirubinemia (Hepatotoxicity [1]): 0 | HepSE_cholecystitis (Hepatotoxicity [2]): 0 | HepSE_cholelithiasis (Hepatotoxicity [3]): 0 | HepSE_cirrhosis (Hepatotoxicity [4]): 0 | HepSE_elevated liver function tests (Hepatotoxicity [5]): 0 | HepSE_hepatic failure (Hepatotoxicity [6]): 0 | HepSE_hepatic necrosis (Hepatotoxicity [7]): 0 | HepSE_hepatitis (Hepatotoxicity [8]): 0 | HepSE_hepatomegaly (Hepatotoxicity [9]): 0 | HepSE_jaundice (Hepatotoxicity [10]): 0 | HepSE_liver disease (Hepatotoxicity [11]): 0 | HepSE_liver fatty (Hepatotoxicity [12]): 0 | HepSE_liver function tests abnormal (Hepatotoxicity [13]): 0 | HepSE_Combined Scores (Hepatotoxicity [14]): 0

CC1(C)S[C@@H]2[C@H](NC(=O)C(C(=O)Oc3ccc4c(c3)CCC4)c3ccccc3)C(=O)N2[C@H]1C(=O)[O-].[Na+] (some centres not stated) [CARBENICILLIN INDANYL SODIUM]
HepSE_bilirubinemia (Hepatotoxicity [1]): 0 | HepSE_cholecystitis (Hepatotoxicity [2]): 0 | HepSE_cholelithiasis (Hepatotoxicity [3]): 0 | HepSE_cirrhosis (Hepatotoxicity [4]): 0 | HepSE_elevated liver function tests (Hepatotoxicity [5]): 0 | HepSE_hepatic failure (Hepatotoxicity [6]): 0 | HepSE_hepatic necrosis (Hepatotoxicity [7]): 0 | HepSE_hepatitis (Hepatotoxicity [8]): 0 | HepSE_hepatomegaly (Hepatotoxicity [9]): 0 | HepSE_jaundice (Hepatotoxicity [10]): 0 | HepSE_liver disease (Hepatotoxicity [11]): 0 | HepSE_liver fatty (Hepatotoxicity [12]): 0 | HepSE_liver function tests abnormal (Hepatotoxicity [13]): 0 | HepSE_Combined Scores (Hepatotoxicity [14]): 0

CCN(CC)CCNC(=O)c1cc(Cl)c(N)cc1OC [METOCLOPRAMIDE]
HepSE_bilirubinemia (Hepatotoxicity [1]): 0 | HepSE_cholecystitis (Hepatotoxicity [2]): 0 | HepSE_cholelithiasis (Hepatotoxicity [3]): 0 | HepSE_cirrhosis (Hepatotoxicity [4]): 0 | HepSE_elevated liver function tests (Hepatotoxicity [5]): 0 | HepSE_hepatic failure (Hepatotoxicity [6]): 0 | HepSE_hepatic necrosis (Hepatotoxicity [7]): 0 | HepSE_hepatitis (Hepatotoxicity [8]): 0 | HepSE_hepatomegaly (Hepatotoxicity [9]): 0 | HepSE_jaundice (Hepatotoxicity [10]): 1 | HepSE_liver disease (Hepatotoxicity [11]): 0 | HepSE_liver fatty (Hepatotoxicity [12]): 0 | HepSE_liver function tests abnormal (Hepatotoxicity [13]): 0 | HepSE_Combined Scores (Hepatotoxicity [14]): 1

CC(C(=O)O)c1ccc(-c2ccccc2)c(F)c1 (configuration not stated) [FLURBIPROFEN]
HepSE_bilirubinemia (Hepatotoxicity [1]): 0 | HepSE_cholecystitis (Hepatotoxicity [2]): 1 | HepSE_cholelithiasis (Hepatotoxicity [3]): 0 | HepSE_cirrhosis (Hepatotoxicity [4]): 0 | HepSE_elevated liver function tests (Hepatotoxicity [5]): 0 | HepSE_hepatic failure (Hepatotoxicity [6]): 1 | HepSE_hepatic necrosis (Hepatotoxicity [7]): 0 | HepSE_hepatitis (Hepatotoxicity [8]): 1 | HepSE_hepatomegaly (Hepatotoxicity [9]): 0 | HepSE_jaundice (Hepatotoxicity [10]): 1 | HepSE_liver disease (Hepatotoxicity [11]): 0 | HepSE_liver fatty (Hepatotoxicity [12]): 0 | HepSE_liver function tests abnormal (Hepatotoxicity [13]): 0 | HepSE_Combined Scores (Hepatotoxicity [14]): 4

O=C(O)CN(CCN(CC(=O)O)CC(=O)O)CC(=O)O [EDETIC ACID]
HepSE_bilirubinemia (Hepatotoxicity [1]; Liver): 0 | HepSE_cholecystitis (Hepatotoxicity [2]; Liver): 0 | HepSE_cholelithiasis (Hepatotoxicity [3]; Liver): 0 | HepSE_cirrhosis (Hepatotoxicity [4]; Liver): 0 | HepSE_elevated liver function tests (Hepatotoxicity [5]; Liver): 0 | HepSE_hepatic failure (Hepatotoxicity [6]; Liver): 0 | HepSE_hepatic necrosis (Hepatotoxicity [7]; Liver): 0 | HepSE_hepatitis (Hepatotoxicity [8]; Liver): 0 | HepSE_hepatomegaly (Hepatotoxicity [9]; Liver): 0 | HepSE_jaundice (Hepatotoxicity [10]; Liver): 0 | HepSE_liver disease (Hepatotoxicity [11]; Liver): 0 | HepSE_liver fatty (Hepatotoxicity [12]; Liver): 0 | HepSE_liver function tests abnormal (Hepatotoxicity [13]; Liver): 0 | HepSE_Combined Scores (Hepatotoxicity [14]; Liver): 0

COc1ccc(-c2ccc3cc(C(=O)O)ccc3c2)cc1C12CC3CC(CC(C3)C1)C2
HepSE_bilirubinemia (Hepatotoxicity [1]): 0 | HepSE_cholecystitis (Hepatotoxicity [2]): 0 | HepSE_cholelithiasis (Hepatotoxicity [3]): 0 | HepSE_cirrhosis (Hepatotoxicity [4]): 0 | HepSE_elevated liver function tests (Hepatotoxicity [5]): 0 | HepSE_hepatic failure (Hepatotoxicity [6]): 0 | HepSE_hepatic necrosis (Hepatotoxicity [7]): 0 | HepSE_hepatitis (Hepatotoxicity [8]): 1 | HepSE_hepatomegaly (Hepatotoxicity [9]): 0 | HepSE_jaundice (Hepatotoxicity [10]): 0 | HepSE_liver disease (Hepatotoxicity [11]): 0 | HepSE_liver fatty (Hepatotoxicity [12]): 0 | HepSE_liver function tests abnormal (Hepatotoxicity [13]): 0 | HepSE_Combined Scores (Hepatotoxicity [14]): 1

CO/N=C(\C(=O)N[C@@H]1C(=O)N2C(C(=O)O)=CCS[C@H]12)c1csc(N)n1 [CEFTIZOXIME]
HepSE_bilirubinemia (Hepatotoxicity [1]): 0 | HepSE_cholecystitis (Hepatotoxicity [2]): 0 | HepSE_cholelithiasis (Hepatotoxicity [3]): 0 | HepSE_cirrhosis (Hepatotoxicity [4]): 0 | HepSE_elevated liver function tests (Hepatotoxicity [5]): 0 | HepSE_hepatic failure (Hepatotoxicity [6]): 0 | HepSE_hepatic necrosis (Hepatotoxicity [7]): 0 | HepSE_hepatitis (Hepatotoxicity [8]): 0 | HepSE_hepatomegaly (Hepatotoxicity [9]): 0 | HepSE_jaundice (Hepatotoxicity [10]): 0 | HepSE_liver disease (Hepatotoxicity [11]): 0 | HepSE_liver fatty (Hepatotoxicity [12]): 0 | HepSE_liver function tests abnormal (Hepatotoxicity [13]): 0 | HepSE_Combined Scores (Hepatotoxicity [14]): 0

C=CCN1CC[C@]23c4c5ccc(O)c4O[C@H]2C(=O)CC[C@@]3(O)[C@H]1C5 [NALOXONE]
HepSE_bilirubinemia (Hepatotoxicity [1]): 0 | HepSE_cholecystitis (Hepatotoxicity [2]): 0 | HepSE_cholelithiasis (Hepatotoxicity [3]): 0 | HepSE_cirrhosis (Hepatotoxicity [4]): 0 | HepSE_elevated liver function tests (Hepatotoxicity [5]): 0 | HepSE_hepatic failure (Hepatotoxicity [6]): 0 | HepSE_hepatic necrosis (Hepatotoxicity [7]): 0 | HepSE_hepatitis (Hepatotoxicity [8]): 0 | HepSE_hepatomegaly (Hepatotoxicity [9]): 0 | HepSE_jaundice (Hepatotoxicity [10]): 0 | HepSE_liver disease (Hepatotoxicity [11]): 0 | HepSE_liver fatty (Hepatotoxicity [12]): 0 | HepSE_liver function tests abnormal (Hepatotoxicity [13]): 0 | HepSE_Combined Scores (Hepatotoxicity [14]): 0

CCN(C(C)=O)c1cccc(-c2ccnc3c(C#N)cnn23)c1 [ZALEPLON]
HepSE_bilirubinemia (Hepatotoxicity [1]): 1 | HepSE_cholecystitis (Hepatotoxicity [2]): 0 | HepSE_cholelithiasis (Hepatotoxicity [3]): 1 | HepSE_cirrhosis (Hepatotoxicity [4]): 0 | HepSE_elevated liver function tests (Hepatotoxicity [5]): 0 | HepSE_hepatic failure (Hepatotoxicity [6]): 0 | HepSE_hepatic necrosis (Hepatotoxicity [7]): 0 | HepSE_hepatitis (Hepatotoxicity [8]): 0 | HepSE_hepatomegaly (Hepatotoxicity [9]): 0 | HepSE_jaundice (Hepatotoxicity [10]): 0 | HepSE_liver disease (Hepatotoxicity [11]): 0 | HepSE_liver fatty (Hepatotoxicity [12]): 0 | HepSE_liver function tests abnormal (Hepatotoxicity [13]): 1 | HepSE_Combined Scores (Hepatotoxicity [14]): 3

CS(=O)(=O)OCCCCOS(C)(=O)=O [BUSULFAN]
HepSE_bilirubinemia (Hepatotoxicity [1]): 1 | HepSE_cholecystitis (Hepatotoxicity [2]): 0 | HepSE_cholelithiasis (Hepatotoxicity [3]): 0 | HepSE_cirrhosis (Hepatotoxicity [4]): 0 | HepSE_elevated liver function tests (Hepatotoxicity [5]): 0 | HepSE_hepatic failure (Hepatotoxicity [6]): 0 | HepSE_hepatic necrosis (Hepatotoxicity [7]): 0 | HepSE_hepatitis (Hepatotoxicity [8]): 1 | HepSE_hepatomegaly (Hepatotoxicity [9]): 1 | HepSE_jaundice (Hepatotoxicity [10]): 1 | HepSE_liver disease (Hepatotoxicity [11]): 0 | HepSE_liver fatty (Hepatotoxicity [12]): 0 | HepSE_liver function tests abnormal (Hepatotoxicity [13]): 0 | HepSE_Combined Scores (Hepatotoxicity [14]): 4
